From patent US20150141381A1, “TETRACYCLINE COMPOUNDS HAVING TARGET THERAPEUTIC ACTIVITIES” (Paratek Pharmaceuticals, Inc., priority 2001, published 2015)
Where two headings read alike, the source gives them in different places.

Key:
E. coli mL308 225 = assay: In Vitro Anti-Bacterial Activity Assay (MIC), gram negative; type: cell-based; details: Escherichia coli, ML308225, 18 h
S. aureus RN450 = assay: In Vitro Anti-Bacterial Activity Assay (MIC), gram positive; type: cell-based; details: Staphylococcus aureus, RN450, 18 h
[1] = gram negative bacteria, read-out: Antibiotic Activity Gram − (MIC)
[2] = gram positive bacteria, read-out: Antibiotic Activity Gram + (MIC)
[3] = MIC class, Table 3, read-out: Antibiotic Activity Gram −
[4] = MIC class, Table 3, read-out: Antibiotic Activity Gram +
[5] = MIC class, Table 3 (Continued), read-out: Gram− activity
[6] = MIC class, Table 3 (Continued), read-out: Gram+ activity

Row | SMILES | MIC (E. coli mL308 225; [1]) [µg/mL] | MIC (S. aureus RN450; [2]) [µg/mL] | MIC (E. coli mL308 225; [3]) [µg/mL] | MIC (S. aureus RN450; [4]) [µg/mL] | also measured
1 | CN(C)[C@@H]1C(O)=C(C(N)=O)C(=O)[C@@]2(O)C(O)=C3C(=O)c4c(O)ccc(C5CCOC5)c4C[C@H]3C[C@@H]12 (stereo partly shown) | < 4 | < 4 |  |  | 
2 | C=C(Cl)c1cc(C(C)(C)C)c(O)c2c1C[C@H]1C[C@H]3[C@H](N(C)C)C(O)=C(C(N)=O)C(=O)[C@@]3(O)C(O)=C1C2=O | < 4 | < 4 |  |  | 
3 | CN(C)c1cc(NCc2ccc(C#N)cc2)c(O)c2c1C[C@H]1C[C@H]3[C@H](N(C)C)C(O)=C(C(N)=O)C(=O)[C@@]3(O)C(O)=C1C2=O | > 4 | > 4 |  |  | 
4 | COCc1cccc(-c2ccc(O)c3c2C[C@H]2C[C@H]4[C@H](N(C)C)C(O)=C(C(N)=O)C(=O)[C@@]4(O)C(O)=C2C3=O)c1 | < 4 | < 4 |  |  | 
5 | CN(C)c1cc(CNCCc2ccccc2)c(O)c2c1C[C@H]1C[C@H]3C(N(C)C)C(O)=C(C(N)=O)C(=O)[C@@]3(O)C(O)=C1C2=O (stereo partly shown) [EH] |  |  | < 4 | < 4 | 
6 | CCCCOC1C(C(N)=O)=C(O)[C@@H](N(C)C)[C@@H]2[C@@H](O)[C@H]3C(=C(O)[C@]12O)C(=O)c1c(O)cccc1[C@@H]3C (stereo partly shown) | > 4 | > 4 |  |  | 
7 | CN(C)c1cc(-c2ccc3c(c2)OCO3)c(O)c2c1C[C@H]1C[C@H]3[C@H](N(C)C)C(O)=C(C(N)=O)C(=O)[C@@]3(O)C(O)=C1C2=O [Y] |  |  | > 4 | < 4 | 
8 | CN(C)[C@@H]1C(O)=C(C(N)=O)C(=O)[C@@]2(O)C(O)=C3C(=O)c4c(O)ccc(-c5ccoc5)c4C[C@H]3C[C@@H]12 [drawing 3429] | < 4 | < 4 |  |  | 
9 | CC(C)NCc1ccc(-c2ccc(O)c3c2C[C@H]2C[C@H]4[C@H](N(C)C)C(O)=C(C(N)=O)C(=O)[C@@]4(O)C(O)=C2C3=O)c2ccccc12 [GB] |  |  | < 4 | < 4 | 
10 | COc1cccc(C/C=C\c2ccc(O)c3c2C[C@H]2C[C@H]4[C@H](N(C)C)C(O)=C(C(N)=O)C(=O)[C@@]4(O)C(O)=C2C3=O)c1O | < 4 | < 4 |  |  | 
11 | COC(=O)CCc1cccc(-c2ccc(O)c3c2C[C@H]2C[C@H]4[C@H](N(C)C)C(O)=C(C(N)=O)C(=O)[C@@]4(O)C(O)=C2C3=O)c1 | > 4 | < 4 |  |  | 
12 | CCCCCc1ccc(O)c2c1C[C@H]1C[C@H]3[C@H](N(C)C)C(O)=C(C(N)=O)C(=O)[C@@]3(O)C(O)=C1C2=O [DG] |  |  | > 4 | < 4 | 
13 | Cc1cc(C(C)(C)C)c(O)c2c1C[C@H]1C[C@H]3[C@H](N(C)C)C(O)=C(C(N)=O)C(=O)[C@@]3(O)C(O)=C1C2=O | > 4 | < 4 |  |  | 
14 | CN(C)c1cc(CN2CCCCC2)c(O)c2c1C[C@H]1C[C@H]3[C@H](N(C)C)C(O)=C(C(N)=O)C(=O)[C@@]3(O)C(O)=C1C2=O | < 4 | < 4 |  |  | 
15 | CN(C)c1cc(NC(=S)Nc2cccc3ccccc23)c(O)c2c1C[C@H]1C[C@H]3[C@H](N(C)C)C(O)=C(C(N)=O)C(=O)[C@@]3(O)C(O)=C1C2=O [CA] |  |  | > 4 | < 4 | 
16 | COc1ccc(CNCCc2ccccc2)cc1-c1ccc(O)c2c1C[C@H]1C[C@H]3[C@H](N(C)C)C(O)=C(C(N)=O)C(=O)[C@@]3(O)C(O)=C1C2=O | < 4 | < 4 |  |  | 
17 | Cc1cc(-c2ccccn2)c2c(c1O)C(=O)C1=C(O)[C@]3(O)C(=O)C(C(N)=O)=C(O)[C@@H](N(C)C)[C@@H]3C[C@@H]1C2 | > 4 | < 4 |  |  | 
18 | CN(C)c1cc(CCC(=O)NC(C)(C)C)c(O)c2c1C[C@H]1C[C@H]3[C@H](N(C)C)C(O)=C(C(N)=O)C(=O)[C@@]3(O)C(O)=C1C2=O | > 4 | > 4 |  |  | 
19 | CN(C)c1cc(CNCC2CCOCC2)c(O)c2c1C[C@H]1C[C@H]3[C@H](N(C)C)C(O)=C(C(N)=O)C(=O)[C@@]3(O)C(O)=C1C2=O | > 4 | < 4 |  |  | 
20 | CN(C)[C@@H]1C(O)=C(C(N)=O)C(=O)[C@@]2(O)C(O)=C3C(=O)c4c(O)ccc(-c5ccc(C#N)cc5)c4C[C@H]3C[C@@H]12 |  |  |  |  | MIC (E. coli mL308 225; [5]): < 4 µg/mL; MIC (S. aureus RN450; [6]): < 4 µg/mL
21 | CN(C)[C@@H]1C(O)=C(C(N)=O)C(=O)[C@@]2(O)C(O)=C3C(=O)c4c(O)c(CN5CCCCC5)cc(-c5ccoc5)c4C[C@H]3C[C@@H]12 [PQ] |  |  | < 4 | < 4 | 

Row | SMILES | MIC (E. coli mL308 225; [1]) [µg/mL] | MIC (S. aureus RN450; [2]) [µg/mL] | MIC (E. coli mL308 225; [3]) [µg/mL] | MIC (S. aureus RN450; [4]) [µg/mL] | also measured
22 | CN(C)Cc1ccc(-c2ccc(O)c3c2C[C@H]2C[C@H]4C(N(C)C)C(O)=C(C(N)=O)C(=O)[C@@]4(O)C(O)=C2C3=O)cc1 (stereo partly shown) |  |  |  |  | MIC (E. coli mL308 225; [5]): < 4 µg/mL; MIC (S. aureus RN450; [6]): < 4 µg/mL
23 | CN(C)[C@@H]1C(O)=C(C(N)=O)C(=O)[C@@]2(O)C(O)=C3C(=O)c4c(O)ccc(CNCc5cccn5C)c4C[C@H]3C[C@@H]12 [KG] |  |  | < 4 | < 4 | 
24 | COc1ccc(CN(C)C)cc1-c1ccc(O)c2c1C[C@H]1C[C@H]3[C@H](N(C)C)C(O)=C(C(N)=O)C(=O)[C@@]3(O)C(O)=C1C2=O [CJ] |  |  | < 4 | < 4 | 
25 | CN(C)c1cc(NC(=O)Nc2ccccc2)c(O)c2c1C[C@H]1C[C@H]3[C@H](N(C)C)C(O)=C(C(N)=O)C(=O)[C@@]3(O)C(O)=C1C2=O [CB] |  |  | > 4 | < 4 | 
26 | CCc1cc(N(C)C)c2c(c1O)C(=O)C1=C(O)[C@]3(O)C(=O)C(C(N)=O)=C(O)C(N(C)C)[C@@H]3C[C@@H]1C2 (stereo partly shown) [IA] |  |  | > 4 | < 4 | 
27 | COc1ccc(-c2ccc(O)c3c2C[C@H]2C[C@H]4[C@H](N(C)C)C(O)=C(C(N)=O)C(=O)[C@@]4(O)C(O)=C2C3=O)cc1C=O [HW] |  |  | < 4 | < 4 | 
28 | CN(C)[C@@H]1C(O)=C(C(N)=O)C(=O)[C@@]2(O)C(O)=C3C(=O)c4c(O)ccc(/C=C/c5c(F)c(F)c(F)c(F)c5F)c4C[C@H]3C[C@@H]12 |  |  |  |  | MIC (E. coli mL308 225; [5]): > 4 µg/mL; MIC (S. aureus RN450; [6]): < 4 µg/mL
29 | CN(C)c1cc(C#Cc2ccc(N)cc2)c(O)c2c1C[C@H]1C[C@H]3[C@H](N(C)C)C(O)=C(C(N)=O)C(=O)[C@@]3(O)C(O)=C1C2=O [CX] |  |  | > 4 | > 4 | 
30 | C[C@H]1c2ccc(-c3cc4ccccc4s3)c(O)c2C(=O)C2=C(O)[C@]3(O)C(=O)C(C(N)=O)=C(O)[C@@H](N(C)C)[C@@H]3[C@@H](O)[C@@H]21 | < 4 | < 4 |  |  | 
31 | CN(C)c1cc(NCc2ccc([N+](=O)[O-])cc2)c(O)c2c1C[C@H]1C[C@H]3[C@H](N(C)C)C(O)=C(C(N)=O)C(=O)[C@@]3(O)C(O)=C1C2=O | > 4 | < 4 |  |  | 
32 | CN(C)c1cc(Cn2ccc(C=O)c2)c(O)c2c1C[C@H]1C[C@H]3[C@H](N(C)C)C(O)=C(C(N)=O)C(=O)[C@@]3(O)C(O)=C1C2=O | > 4 | < 4 |  |  | 
33 | C[C@H]1c2ccc(N(C)C3CCN(C)CC3)c(O)c2C(=O)C2=C(O)[C@]3(O)C(=O)C(C(N)=O)=C(O)[C@@H](N(C)C)[C@@H]3[C@@H](O)[C@@H]21 | > 4 | > 4 |  |  | 
34 | Cc1csc(-c2ccc(O)c3c2C[C@H]2C[C@H]4[C@H](N(C)C)C(O)=C(C(N)=O)C(=O)[C@@]4(O)C(O)=C2C3=O)c1 |  |  |  |  | MIC (E. coli mL308 225; [5]): < 4 µg/mL; MIC (S. aureus RN450; [6]): < 4 µg/mL
35 | COc1ccc(CNc2cc(N(C)C)c3c(c2O)C(=O)C2=C(O)[C@]4(O)C(=O)C(C(N)=O)=C(O)[C@@H](N(C)C)[C@@H]4C[C@@H]2C3)cc1O | > 4 | > 4 |  |  | 
36 | CN(C)c1cc(CNc2nc(C(F)(F)F)co2)c(O)c2c1C[C@H]1C[C@H]3[C@H](N(C)C)C(O)=C(C(N)=O)C(=O)[C@@]3(O)C(O)=C1C2=O | < 4 | < 4 |  |  | 
37 | CN(C)c1cc(CN2CCCCC2)c(O)c2c1C[C@H]1C[C@H]3C(N(C)C)C(O)=C(C(N)=O)C(=O)[C@@]3(O)C(O)=C1C2=O (stereo partly shown) |  |  |  |  | MIC (E. coli mL308 225; [5]): > 4 µg/mL; MIC (S. aureus RN450; [6]): < 4 µg/mL
38 | COC(=O)c1ccc(CNCc2cc(N(C)C)c3c(c2O)C(=O)C2=C(O)[C@]4(O)C(=O)C(C(N)=O)=C(O)[C@@H](N(C)C)[C@@H]4C[C@@H]2C3)cc1 | > 4 | < 4 |  |  | 
39 | CN(C)c1cc(NC(=O)Nc2ccc(Cl)cc2[N+](=O)O)c(O)c2c1C[C@H]1C[C@H]3[C@H](N(C)C)C(O)=C(C(N)=O)C(=O)[C@@]3(O)C(O)=C1C2=O [DC] |  |  | > 4 | < 4 | 
40 | CN(C)[C@@H]1C(O)=C(C(N)=O)C(=O)[C@@]2(O)C(O)=C3C(=O)c4c(O)ccc(-c5ccc(O)nc5)c4C[C@H]3C[C@@H]12 | < 4 | < 4 |  |  | 
41 | CN(C)c1ccc2c(c1O)C(=O)C1=C(O)[C@]3(O)C(=O)C(C(N)=O)=C(O)[C@@H](N(C)C)[C@@H]3C[C@@H]1C2 [JX] |  |  | > 4 | < 4 | 
